Measured values as given in ChEMBL document CHEMBL1201862, “PubChem BioAssay data set” (2004).
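Briefly, cells in 96-well plates were exposed to five compound concentrations for 48 h, and endpoints were estimated by linear interpolation. GI50 = concentration required for 50% inhibition of growth.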 Active and inactive are the calls of the source. No stated cut-off is given here; in the data, active = GI50 up to about 1.1 µM and inactive = higher.

Assays:
Assay in all cases: NCI anticancer screen, dose series, 48 h
XF498 = system: XF498
KM-20L2 = system: KM-20L2
DMS-273 = system: DMS-273
M19-MEL = system: M19-MEL
DLD-1 = system: DLD-1
HOP-18 = system: HOP-18
SNB-78 = system: SNB-78
RXF 631 = system: RXF 631
DMS-114 = system: DMS-114

Row | Structure (SMILES) | GI50 (XF498) | GI50 (KM-20L2) | GI50 (DMS-273) | GI50 (M19-MEL) | GI50 (DLD-1) | GI50 (HOP-18) | GI50 (SNB-78) | GI50 (RXF 631) | GI50 (DMS-114)
1 | CC(=O)OCC1OC(OC2CC3C(C)(C)C(OC(C)=O)CC[C@]3(C)C3CCC45CC4(CC[C@H]5C(C)CC(O)[C@@H](O)C(C)(C)O)[C@]23C)C(O)C(O)C1O (some centres not stated) | 19.8 µM (inactive) | 8.05 µM (inactive) | 7.62 µM (inactive) | 7.55 µM (inactive) | 7.41 µM (inactive) | 8.61 µM (inactive) |  |  | 
2 | O=C(O)CCCCCOc1cccnc1/C=N/NC1=NCCN1 | 91 µM (inactive) | > 100 µM (inactive) | > 100 µM (inactive) | > 100 µM (inactive) | > 100 µM (inactive) | > 100 µM (inactive) | > 100 µM (inactive) |  | 
3 | NC(=O)N/N=C(\CCC(=O)N(Cc1ccccc1)Cc1ccccc1)CC(=O)c1ccc(F)cc1 |  | > 100 µM (inactive) |  | > 100 µM (inactive) | > 100 µM (inactive) | > 100 µM (inactive) | > 100 µM (inactive) | > 100 µM (inactive) | > 100 µM (inactive)
4 | O=C1c2ccccc2C(=O)C1C(c1ccc([N+](=O)[O-])cc1)C1C(=O)c2ccccc2C1=O | 55.2 µM (inactive) | > 100 µM (inactive) | 99.1 µM (inactive) |  | 34.8 µM (inactive) | > 100 µM (inactive) | 33.4 µM (inactive) | 12.1 µM (inactive) | > 10 µM (inactive)
5 | O=C(CSc1nnc(-c2ccc(/N=C\c3ccc(Cl)cc3)cc2)o1)Nc1ccccc1[N+](=O)[O-] | > 100 µM (inactive) | > 100 µM (inactive) | > 100 µM (inactive) | > 100 µM (inactive) |  | > 100 µM (inactive) | > 100 µM (inactive) |  | > 100 µM (inactive)
6 | CCCCCCCCCCCC(=O)OCC1OC(n2cc(F)c(=O)[nH]c2=O)C(N)C(OC(=O)CCCCCCCCCCC)C1O (configuration not stated) |  | > 100 µM (inactive) | 44.3 µM (inactive) | > 100 µM (inactive) |  |  | 71.1 µM (inactive) |  | 49.5 µM (inactive)
7 | CCOC(=O)N1CCC(=O)C(CNC23CC4CC(CC(C4)C2)C3)C1 (configuration not stated) | 18.1 µM (inactive) | > 100 µM (inactive) | 25.2 µM (inactive) | 20.4 µM (inactive) | 21.1 µM (inactive) |  | > 10 µM (inactive) | > 100 µM (inactive) | 
8 | O=C(CCc1nnc(S)[nH]1)Nc1ccccc1Cl | > 100 µM (inactive) | > 100 µM (inactive) | > 100 µM (inactive) | > 100 µM (inactive) | > 100 µM (inactive) | > 100 µM (inactive) | > 100 µM (inactive) |  | > 100 µM (inactive)
9 | COc1ccc(OC(=O)N2C/C(=C\c3ccccc3)C(=O)/C(=C/c3ccccc3)C2)cc1 |  | 5.42 µM (inactive) | 2.09 µM (inactive) | 1.38 µM (inactive) | 1.71 µM (inactive) | 16.8 µM (inactive) | 3.43 µM (inactive) |  | 
10 | N#C/C(c1nc2ccccc2[nH]1)=c1\s/c(=C/c2ccc(Cl)cc2)c(=O)n1-c1ccccc1 | > 100 µM (inactive) | > 100 µM (inactive) | > 100 µM (inactive) | > 100 µM (inactive) | > 100 µM (inactive) | > 100 µM (inactive) |  |  | > 100 µM (inactive)
11 | O=c1c2cc(Cl)ccc2n2nnc3ccc(NCCNCCO)c1c32 |  | 0.962 µM (active) | 0.641 µM (active) | 1.55 µM (inactive) | 1.2 µM (inactive) |  | 2.35 µM (inactive) | 1.07 µM (active) | 1.49 µM (inactive)
12 | COc1ccc(OCC(=O)O)c2c1CCC(C(C)C)C2=O (configuration not stated) |  | > 100 µM (inactive) | > 100 µM (inactive) | > 100 µM (inactive) | > 100 µM (inactive) | > 100 µM (inactive) | > 100 µM (inactive) | > 100 µM (inactive) | > 100 µM (inactive)
13 | CCC(/C(=N/NC(=O)C[N+](C)(C)C)c1ccccc1)C1OC(=O)c2ccccc21 (configuration not stated) | > 100 µM (inactive) | > 100 µM (inactive) | > 100 µM (inactive) | > 100 µM (inactive) |  |  | > 100 µM (inactive) | > 100 µM (inactive) | > 100 µM (inactive)
14 | Cc1nn2c3c(nnc2c1C#N)C(=O)NN=C(N)S3 |  | > 100 µM (inactive) |  | > 100 µM (inactive) | > 100 µM (inactive) | > 100 µM (inactive) |  |  | 
15 | O=c1[nH]cc(COCCCO)c(=O)[nH]1 | > 100 µM (inactive) | > 100 µM (inactive) | > 100 µM (inactive) | > 100 µM (inactive) | > 100 µM (inactive) | > 100 µM (inactive) | > 100 µM (inactive) |  | 
16 | COC(=O)C(C(=O)c1ccccc1)C(C(=O)C(=O)Nc1ccc(OC)cc1OC)C(=O)C(=O)c1ccc(C)cc1 (configuration not stated) | > 100 µM (inactive) | > 100 µM (inactive) | > 100 µM (inactive) | > 100 µM (inactive) | > 100 µM (inactive) | > 100 µM (inactive) | > 100 µM (inactive) | > 100 µM (inactive) | > 100 µM (inactive)
17 | COC(=O)c1nc(N)nc(O)c1-c1ccc(Cl)cc1 | > 100 µM (inactive) | > 100 µM (inactive) | > 100 µM (inactive) | > 100 µM (inactive) | > 100 µM (inactive) |  | > 100 µM (inactive) | > 100 µM (inactive) | > 100 µM (inactive)
18 | CC(=O)OC(/C=C1/C=CC(=O)O1)COC(=O)c1ccccc1 (configuration not stated) [ACETYLMELODORINOL] | > 31.2 µM (inactive) | > 31.2 µM (inactive) | > 31.2 µM (inactive) | > 31.2 µM (inactive) | > 31.2 µM (inactive) | > 31.2 µM (inactive) | > 31.2 µM (inactive) |  | > 31.2 µM (inactive)
19 | C1=C(c2ccccc2)CN(c2ccccc2)OC1 | > 100 µM (inactive) | 63.5 µM (inactive) | > 100 µM (inactive) | 47.5 µM (inactive) | 78.5 µM (inactive) | 2.71 µM (inactive) | > 100 µM (inactive) |  | 
20 | CC1CC2C(=O)N(c3ccccc3)C(=O)C2c2c1c1ccccc1n2Cc1ccccc1 (configuration not stated) |  |  |  | > 100 µM (inactive) | 12.5 µM (inactive) |  |  |  | 31 µM (inactive)
21 | O=c1nc(NC(c2ccccc2)(c2ccccc2)c2ccccc2)ccn1CCNCCn1ccc(NC(c2ccccc2)(c2ccccc2)c2ccccc2)nc1=O | 4.11 µM (inactive) | 10 µM (inactive) | 4.16 µM (inactive) | 4.46 µM (inactive) | 6.53 µM (inactive) | 16.3 µM (inactive) |  |  | 3.23 µM (inactive)
22 | CN(C)C(=S)/N=c1\ss/c(=N\c2ccccc2)n1-c1ccccc1 |  |  | 16.6 µM (inactive) | 24.7 µM (inactive) | 28.4 µM (inactive) | 28.5 µM (inactive) | 20.7 µM (inactive) | 29.9 µM (inactive) | 1.44 µM (inactive)
23 | FC(F)(F)c1nc(-c2ccccc2Cl)[nH]c1C(F)(F)F | 0.621 µM (active) | 0.619 µM (active) | 0.873 µM (active) | 0.697 µM (active) | 1.13 µM (inactive) | 0.364 µM (active) | 1.06 µM (active) |  | 0.673 µM (active)
24 | O=C(O)CSc1nnc(-c2ccc(O)cc2)[nH]1 | > 100 µM (inactive) | > 100 µM (inactive) | > 100 µM (inactive) | > 100 µM (inactive) | > 100 µM (inactive) | > 100 µM (inactive) | > 100 µM (inactive) | > 100 µM (inactive) | > 100 µM (inactive)
25 | CCOC(=O)/C(Br)=C1\OC(=O)c2ccccc2-c2ccccc21 | 65.8 µM (inactive) |  | 41.4 µM (inactive) | 51.1 µM (inactive) | 91.6 µM (inactive) | 91.8 µM (inactive) | 29.6 µM (inactive) | 33.3 µM (inactive) | 23.1 µM (inactive)
26 | Cc1nc2ccccc2c(=O)[nH]1 | > 100 µM (inactive) | > 100 µM (inactive) |  | > 100 µM (inactive) | > 100 µM (inactive) | > 100 µM (inactive) | > 100 µM (inactive) | > 100 µM (inactive) | 
